Assay results from ChEMBL document CHEMBL1201862, “PubChem BioAssay data set” (2004).
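These data come from cells grown in 96-well plates and exposed to compound for 48 hours at five concentrations. At the GI50, growth is halved.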 Calls of active or inactive are those of the source. Rule as the data show it: active = GI50 up to about 1.1 µM and inactive = higher. Numbered stars: 1 amine (or outer) side, 2 acyl side, 3 side chain; on linkers, the order of the positions; unused ones are H or OH. Square brackets hold non-standard residues; d marks the D form. Peptide text beside a SMILES is read from it. X55 = CC[C@H](C)[C@H](OC(=O)[C@@H](C)[C@@H](CC)N[*:1])C(=O)[*:2]; X31 = C[C@H](N[*:1])C(=O)C(C)(C)C(=O)[*:2]; NMeY = CN[C@@H](Cc1ccc(O)cc1)C(=O)O; NMeL = CN[C@@H](CC(C)C)C(=O)O; NMeV = CN[C@H](C(=O)O)C(C)C

Experiments:
Experiment in all cases: growth of human tumour cells (NCI), 48 h
786-0 = tested on: 786-0
A498 = tested on: A498
A549 = tested on: A549
ACHN = tested on: ACHN
BT-549 = tested on: BT-549
DU-145 = tested on: DU-145
HOP-92 = tested on: HOP-92
Hs-578T = tested on: Hs-578T
MDA-MB-231 = tested on: MDA-MB-231
MOLT-4 = tested on: MOLT-4
NCI-H226 = tested on: NCI-H226
NCI-H460 = tested on: NCI-H460
OVCAR-8 = tested on: OVCAR-8
PC-3 = tested on: PC-3
RPMI-8226 = tested on: RPMI-8226
SK-MEL-28 = tested on: SK-MEL-28
SK-MEL-2 = tested on: SK-MEL-2
SW-620 = tested on: SW-620
T47D = tested on: T47D
U-251 = tested on: U-251

Structure (SMILES)	GI50 (786-0)	GI50 (A498)	GI50 (A549)	GI50 (ACHN)	GI50 (BT-549)	GI50 (DU-145)	GI50 (HOP-92)	GI50 (Hs-578T)	GI50 (MDA-MB-231)	GI50 (MOLT-4)	GI50 (NCI-H226)	GI50 (NCI-H460)	GI50 (OVCAR-8)	GI50 (PC-3)	GI50 (RPMI-8226)	GI50 (SK-MEL-28)	GI50 (SK-MEL-2)	GI50 (SW-620)	GI50 (T47D)	GI50 (U-251)
C=C1CCOC2(C(O)C(C)(O)CO)NC(=O)C1(O)NC2=O (configuration not stated)	> 100 µM (inactive)	> 100 µM (inactive)	> 100 µM (inactive)	> 100 µM (inactive)	> 100 µM (inactive)	> 100 µM (inactive)	> 100 µM (inactive)	> 100 µM (inactive)	> 100 µM (inactive)	> 100 µM (inactive)	> 100 µM (inactive)	> 100 µM (inactive)	> 100 µM (inactive)	> 100 µM (inactive)	> 100 µM (inactive)	> 100 µM (inactive)	> 100 µM (inactive)	> 100 µM (inactive)	> 100 µM (inactive)	> 100 µM (inactive)
O=C1c2ccccc2-n2c1nc1cc(Cl)ccc1c2=O	89.7 µM (inactive)	> 100 µM (inactive)	66.8 µM (inactive)	> 100 µM (inactive)	> 100 µM (inactive)	24.1 µM (inactive)	71.6 µM (inactive)	20.2 µM (inactive)	> 100 µM (inactive)	11.9 µM (inactive)	> 100 µM (inactive)	30.3 µM (inactive)	36.8 µM (inactive)	> 100 µM (inactive)	5.04 µM (inactive)	–	43.9 µM (inactive)	–	0.807 µM (active)	51.4 µM (inactive)
COc1ccc(NC(=S)Nc2cc(C)ccn2)cc1	> 100 µM (inactive)	> 100 µM (inactive)	–	> 100 µM (inactive)	> 100 µM (inactive)	> 100 µM (inactive)	> 100 µM (inactive)	> 100 µM (inactive)	> 100 µM (inactive)	> 100 µM (inactive)	> 100 µM (inactive)	> 100 µM (inactive)	> 100 µM (inactive)	> 100 µM (inactive)	> 100 µM (inactive)	> 100 µM (inactive)	> 100 µM (inactive)	> 100 µM (inactive)	> 100 µM (inactive)	> 100 µM (inactive)
CCOc1cc(NC(C)=O)ccc1C(=O)NN1C(=O)CSC1c1ccccc1 (configuration not stated)	> 100 µM (inactive)	> 100 µM (inactive)	77.3 µM (inactive)	> 100 µM (inactive)	34.9 µM (inactive)	> 100 µM (inactive)	42.5 µM (inactive)	> 100 µM (inactive)	> 100 µM (inactive)	< 0.01 µM (active)	> 100 µM (inactive)	> 100 µM (inactive)	48 µM (inactive)	78.7 µM (inactive)	26.1 µM (inactive)	> 100 µM (inactive)	> 100 µM (inactive)	> 100 µM (inactive)	25.7 µM (inactive)	–
CC(=O)OCCn1c(Cc2ccc(Cl)cc2)nn(C(C)=O)c1=O	> 100 µM (inactive)	> 100 µM (inactive)	> 100 µM (inactive)	> 100 µM (inactive)	> 100 µM (inactive)	> 100 µM (inactive)	> 100 µM (inactive)	> 100 µM (inactive)	> 100 µM (inactive)	> 100 µM (inactive)	> 100 µM (inactive)	> 100 µM (inactive)	> 100 µM (inactive)	> 100 µM (inactive)	> 100 µM (inactive)	> 100 µM (inactive)	> 100 µM (inactive)	> 100 µM (inactive)	> 100 µM (inactive)	> 100 µM (inactive)
CC1=NN(c2ccccc2Cl)C2(C1)C(Cl)C(=O)N2c1nc2ccccc2s1 (configuration not stated)	31.8 µM (inactive)	> 100 µM (inactive)	55.7 µM (inactive)	94.8 µM (inactive)	54.6 µM (inactive)	47.2 µM (inactive)	88.7 µM (inactive)	> 100 µM (inactive)	46.6 µM (inactive)	30 µM (inactive)	50.5 µM (inactive)	79.6 µM (inactive)	38.1 µM (inactive)	> 100 µM (inactive)	21.7 µM (inactive)	–	48.9 µM (inactive)	63.4 µM (inactive)	44.3 µM (inactive)	28.6 µM (inactive)
Cc1nc(-c2ccc([N+](=O)[O-])cc2)cn2c1nc1ccccc12	71 µM (inactive)	> 100 µM (inactive)	> 100 µM (inactive)	–	> 100 µM (inactive)	> 100 µM (inactive)	70.5 µM (inactive)	> 100 µM (inactive)	> 100 µM (inactive)	> 100 µM (inactive)	> 100 µM (inactive)	> 100 µM (inactive)	> 100 µM (inactive)	> 100 µM (inactive)	> 100 µM (inactive)	> 100 µM (inactive)	31.1 µM (inactive)	> 100 µM (inactive)	8.81 µM (inactive)	40.2 µM (inactive)
CC1=C2NCN(C)N=C2C(C#N)(C#N)C1(C#N)C#N	19.5 µM (inactive)	41.3 µM (inactive)	> 78.5 µM (inactive)	17.9 µM (inactive)	21.6 µM (inactive)	42.3 µM (inactive)	15.4 µM (inactive)	32.6 µM (inactive)	19.6 µM (inactive)	2.56 µM (inactive)	> 50.7 µM (inactive)	–	27 µM (inactive)	26.9 µM (inactive)	10.9 µM (inactive)	21.6 µM (inactive)	> 61.7 µM (inactive)	10.2 µM (inactive)	21.7 µM (inactive)	28.9 µM (inactive)
CC1=C(C(=O)NC(C)(C)C)CC(C(=O)NC(C)(C)C)C(C)N1 (configuration not stated)	> 100 µM (inactive)	73.1 µM (inactive)	> 100 µM (inactive)	> 100 µM (inactive)	> 100 µM (inactive)	> 100 µM (inactive)	71.1 µM (inactive)	> 100 µM (inactive)	> 100 µM (inactive)	> 100 µM (inactive)	> 100 µM (inactive)	> 100 µM (inactive)	> 100 µM (inactive)	> 100 µM (inactive)	> 100 µM (inactive)	–	> 100 µM (inactive)	> 100 µM (inactive)	> 100 µM (inactive)	> 100 µM (inactive)
CC1C2CC(C(S(=O)(=O)O)C2=O)C1(C)C (configuration not stated)	> 100 µM (inactive)	> 100 µM (inactive)	–	> 100 µM (inactive)	> 100 µM (inactive)	> 100 µM (inactive)	> 100 µM (inactive)	> 100 µM (inactive)	> 100 µM (inactive)	> 100 µM (inactive)	> 100 µM (inactive)	> 100 µM (inactive)	> 100 µM (inactive)	> 100 µM (inactive)	–	> 100 µM (inactive)	–	> 100 µM (inactive)	> 100 µM (inactive)	> 100 µM (inactive)
O=c1[nH][nH]c(=O)n1/N=C/c1ccccc1	> 100 µM (inactive)	> 100 µM (inactive)	> 100 µM (inactive)	> 100 µM (inactive)	> 100 µM (inactive)	> 100 µM (inactive)	> 100 µM (inactive)	> 100 µM (inactive)	> 100 µM (inactive)	> 100 µM (inactive)	> 100 µM (inactive)	> 100 µM (inactive)	> 100 µM (inactive)	> 100 µM (inactive)	> 100 µM (inactive)	> 100 µM (inactive)	> 100 µM (inactive)	> 100 µM (inactive)	> 100 µM (inactive)	> 100 µM (inactive)
CN(C)c1ccc(/C=N/NC(=S)Nc2ccccc2)cc1	> 100 µM (inactive)	> 100 µM (inactive)	> 100 µM (inactive)	> 100 µM (inactive)	> 100 µM (inactive)	> 100 µM (inactive)	> 100 µM (inactive)	> 100 µM (inactive)	> 100 µM (inactive)	> 100 µM (inactive)	> 100 µM (inactive)	> 100 µM (inactive)	> 100 µM (inactive)	> 100 µM (inactive)	> 100 µM (inactive)	> 100 µM (inactive)	> 100 µM (inactive)	> 100 µM (inactive)	> 100 µM (inactive)	> 100 µM (inactive)
NCC(O)CSCc1ccc(Cl)cc1 (configuration not stated)	> 100 µM (inactive)	> 100 µM (inactive)	> 100 µM (inactive)	> 100 µM (inactive)	> 100 µM (inactive)	> 100 µM (inactive)	> 100 µM (inactive)	> 100 µM (inactive)	> 100 µM (inactive)	> 100 µM (inactive)	> 100 µM (inactive)	> 100 µM (inactive)	> 100 µM (inactive)	> 100 µM (inactive)	> 100 µM (inactive)	> 100 µM (inactive)	–	> 100 µM (inactive)	> 100 µM (inactive)	> 100 µM (inactive)
CC[C@H](C)[C@@H]1OC(=O)[C@@H](C)[C@@H](CC)NC(=O)[C@H](C)NC(=O)C(C)(C)C(=O)[C@H](C)NC(=O)[C@H](Cc2ccc(OC)cc2)N(C)C(=O)[C@H](C(C)C)N(C)C(=O)CNC(=O)[C@H](CC(C)C)N(C)C(=O)CNC1=O [DOLASTATIN 11] (cyclo(A[X55]G[NMeL]G[NMeV][NMeY](Me)[X31]))	0.0304 µM (active)	0.118 µM (active)	0.0175 µM (active)	0.0327 µM (active)	0.091 µM (active)	0.118 µM (active)	0.0752 µM (active)	0.258 µM (active)	0.0632 µM (active)	0.543 µM (active)	0.137 µM (active)	0.00115 µM (active)	0.101 µM (active)	0.0849 µM (active)	0.115 µM (active)	–	0.0787 µM (active)	0.286 µM (active)	0.448 µM (active)	0.0158 µM (active)
